Results published in ChEMBL document CHEMBL5055633, “Amphipathic Barbiturates as Mimics of Antimicrobial Peptides and the Marine Natural Products Eusynstyelamides with Activity against Multi-resistant Clinical Isolates” (J Med Chem, 2021).

Experiments:
HepG2 = assay: Cytotoxicity against human HepG2 cells assessed as reduction in cell viability incubated for 24 hrs by colorimetric tetrazolium assay; assay type: functional, cell-based; details: HepG2, 24 h
[1] = Hemolytic activity in human erythrocytes incubated for 1 hr by microplate reader; assay type: functional, cell-based; details: erythrocyte
Pseudomonas aeruginosa [2] = assay: Antimicrobial activity against Pseudomonas aeruginosa PAO1 assessed as reduction in bacterial growth incubated for 48 hrs by microdilution susceptibility test; assay type: functional
Escherichia coli [3] = assay: Antimicrobial activity against Escherichia coli ATCC 25922 assessed as reduction in bacterial growth incubated for 48 hrs by microdilution susceptibility test; assay type: functional
[4] = test system: Corynebacterium glutamicum; assay: Antimicrobial activity against Corynebacterium glutamicum ATCC 13032 assessed as reduction in bacterial growth incubated for 48 hrs by microdilution susceptibility test; assay type: functional
Staphylococcus aureus [5] = assay: Antimicrobial activity against Staphylococcus aureus ATCC 9144 assessed as reduction in bacterial growth incubated for 48 hrs by microdilution susceptibility test; assay type: functional
MRC5 = assay: Cytotoxicity against human MRC5 cells assessed as reduction in cell viability incubated for 24 hrs by colorimetric tetrazolium assay; assay type: functional, cell-based; details: MRC5, 24 h
Staphylococcus aureus [6] = assay: Antimicrobial activity against extended spectrum-lactamase-carbapenemas producing Staphylococcus aureus N315 assessed as reduction in bacterial growth incubated for 48 hrs by microdilution method; assay type: functional
Staphylococcus aureus [7] = assay: Antimicrobial activity against extended spectrum-lactamase-carbapenemas producing Staphylococcus aureus NCTC 10442 assessed as reduction in bacterial growth incubated for 48 hrs by microdilution method; assay type: functional
Staphylococcus aureus [8] = assay: Antimicrobial activity against extended spectrum-lactamase-carbapenemas producing Staphylococcus aureus strain 85/2082 assessed as reduction in bacterial growth incubated for 48 hrs by microdilution method; assay type: functional
Staphylococcus aureus [9] = assay: Antimicrobial activity against extended spectrum-lactamase-carbapenemas producing Staphylococcus aureus strain WIS assessed as reduction in bacterial growth incubated for 48 hrs by microdilution method; assay type: functional
Staphylococcus aureus [10] = assay: Antimicrobial activity against extended spectrum-lactamase-carbapenemas producing Staphylococcus aureus strain IHT 99040 assessed as reduction in bacterial growth incubated for 48 hrs by microdilution method; assay type: functional
Enterococcus faecium [11] = assay: Antimicrobial activity against extended spectrum-lactamase-carbapenemas producing Enterococcus faecium strain 50673722 assessed as reduction in bacterial growth incubated for 48 hrs by microdilution method; assay type: functional
Enterococcus faecium [12] = assay: Antimicrobial activity against extended spectrum-lactamase-carbapenemas producing Enterococcus faecium strain 50901530 assessed as reduction in bacterial growth incubated for 48 hrs by microdilution method; assay type: functional
Enterococcus faecium [13] = assay: Antimicrobial activity against extended spectrum-lactamase-carbapenemas producing Enterococcus faecium strain K36-18 assessed as reduction in bacterial growth incubated for 48 hrs by microdilution method; assay type: functional
Enterococcus faecium [14] = assay: Antimicrobial activity against extended spectrum-lactamase-carbapenemas producing Enterococcus faecium strain 50758899 assessed as reduction in bacterial growth incubated for 48 hrs by microdilution method; assay type: functional
Enterococcus faecium [15] = assay: Antimicrobial activity against extended spectrum-lactamase-carbapenemas producing Enterococcus faecium strain TUH.50-22 assessed as reduction in bacterial growth incubated for 48 hrs by microdilution method; assay type: functional
Escherichia coli [16] = assay: Antimicrobial activity against oxacillinase-producing Escherichia coli 50579417 assessed as reduction in bacterial growth incubated for 48 hrs by microdilution method; assay type: functional
Escherichia coli [17] = assay: Antimicrobial activity against verona integron-encoded metallo-beta-lactamase-29-producing Escherichia coli 50639799 assessed as reduction in bacterial growth incubated for 48 hrs by microdilution method; assay type: functional
Escherichia coli [18] = assay: Antimicrobial activity against New Delhi metallo-beta lactamase-1 producing Escherichia coli 50676002 assessed as reduction in bacterial growth incubated for 48 hrs by microdilution method; assay type: functional
Escherichia coli [19] = assay: Antimicrobial activity against New Delhi metallo-beta lactamase-1 producing Escherichia coli 50739822 assessed as reduction in bacterial growth incubated for 48 hrs by microdilution method; assay type: functional
Escherichia coli [20] = assay: Antimicrobial activity against imipenem-type carbapenemase-26 producing Escherichia coli 50857972 assessed as reduction in bacterial growth incubated for 48 hrs by microdilution method; assay type: functional
Pseudomonas aeruginosa [21] = assay: Antimicrobial activity against verona integron-encoded metallo-beta-lactamase-2 producing Pseudomonas aeruginosa K34-7 assessed as reduction in bacterial growth incubated for 48 hrs by microdilution method; assay type: functional
Pseudomonas aeruginosa [22] = assay: Antimicrobial activity against verona integron-encoded metallo-beta-lactamase-4 producing Pseudomonas aeruginosa K34-73 assessed as reduction in bacterial growth incubated for 48 hrs by microdilution method; assay type: functional
Pseudomonas aeruginosa [23] = assay: Antimicrobial activity against imipenem-type carbapenemase-14 producing Pseudomonas aeruginosa K44-24 assessed as reduction in bacterial growth incubated for 48 hrs by microdilution method; assay type: functional
Pseudomonas aeruginosa [24] = assay: Antimicrobial activity against New Delhi metallo-beta lactamase-1 producing Pseudomonas aeruginosa 50692172 assessed as reduction in bacterial growth incubated for 48 hrs by microdilution method; assay type: functional
Pseudomonas aeruginosa [25] = assay: Antimicrobial activity against verona integron-encoded metallo-beta-lactamase producing Pseudomonas aeruginosa 50692520 assessed as reduction in bacterial growth incubated for 48 hrs by microdilution method; assay type: functional
[26] = Antimicrobial activity against carbapenemase producing Klebsiella pneumoniae K47-25 assessed as reduction in bacterial growth incubated for 48 hrs by microdilution method; assay type: functional
[27] = Antimicrobial activity against New Delhi metallo-beta lactamase-1 Klebsiella pneumoniae K66-45 assessed as reduction in bacterial growth incubated for 48 hrs by microdilution method; assay type: functional
[28] = Antimicrobial activity against New Delhi metallo-beta lactamase-1 and oxacillinase -181 producing Klebsiella pneumoniae 50531633 assessed as reduction in bacterial growth incubated for 48 hrs by microdilution method; assay type: functional
[29] = Antimicrobial activity against oxacillinase-245 producing Klebsiella pneumoniae 50625602 assessed as reduction in bacterial growth incubated for 48 hrs by microdilution method; assay type: functional
[30] = Antimicrobial activity against verona integron-encoded metallo-beta-lactamase -1 producing Klebsiella pneumoniae 50667959 assessed as reduction in bacterial growth incubated for 48 hrs by microdilution method; assay type: functional
Acinetobacter baumannii [31] = assay: Antimicrobial activity against oxacillinase-58 producing Acinetobacter baumannii K12-21 assessed as reduction in bacterial growth incubated for 48 hrs by microdilution method; assay type: functional
Acinetobacter baumannii [32] = assay: Antimicrobial activity against oxacillinase-23 producing Acinetobacter baumannii K44-35 assessed as reduction in bacterial growth incubated for 48 hrs by microdilution method; assay type: functional
Acinetobacter baumannii [33] = assay: Antimicrobial activity against oxacillinase-23 producing Acinetobacter baumannii K47-42 assessed as reduction in bacterial growth incubated for 48 hrs by microdilution method; assay type: functional
Acinetobacter baumannii [34] = assay: Antimicrobial activity against oxacillinase-24 producing Acinetobacter baumannii K55-13 assessed as reduction in bacterial growth incubated for 48 hrs by microdilution method; assay type: functional
Acinetobacter baumannii [35] = assay: Antimicrobial activity against oxacillinase-23 producing Acinetobacter baumannii K63-58 assessed as reduction in bacterial growth incubated for 48 hrs by microdilution method; assay type: functional

Structure (SMILES)	IC50 (HepG2)	EC50 [1]	MIC (Pseudomonas aeruginosa [2])	MIC (Escherichia coli [3])	MIC [4]	MIC (Staphylococcus aureus [5])	IC50 (MRC5)	MIC (Staphylococcus aureus [6])	MIC (Staphylococcus aureus [7])	MIC (Staphylococcus aureus [8])	MIC (Staphylococcus aureus [9])	MIC (Staphylococcus aureus [10])	MIC (Enterococcus faecium [11])	MIC (Enterococcus faecium [12])	MIC (Enterococcus faecium [13])	MIC (Enterococcus faecium [14])	MIC (Enterococcus faecium [15])	MIC (Escherichia coli [16])	MIC (Escherichia coli [17])	MIC (Escherichia coli [18])	further results
N=C(N)NCCCCN1C(=O)N(CCCCNC(=N)N)C(=O)C(Cc2cc(C(F)(F)F)cc(C(F)(F)F)c2)(Cc2cc(C(F)(F)F)cc(C(F)(F)F)c2)C1=O.O=C(O)C(F)(F)F.O=C(O)C(F)(F)F	19 µg/mL	98 µg/mL	8 µg/mL	2 µg/mL	2 µg/mL	2 µg/mL	29 µg/mL	2 µg/mL	2 µg/mL	2 µg/mL	2 µg/mL	2 µg/mL	2 µg/mL	2 µg/mL	4 µg/mL	4 µg/mL	2 µg/mL	8 µg/mL	4 µg/mL	4 µg/mL	MIC (Escherichia coli [19]): 8 µg/mL; MIC (Escherichia coli [20]): 4 µg/mL; MIC (Pseudomonas aeruginosa [21]): 16 µg/mL; MIC (Pseudomonas aeruginosa [22]): 16 µg/mL; MIC (Pseudomonas aeruginosa [23]): 16 µg/mL; MIC (Pseudomonas aeruginosa [24]): 16 µg/mL; MIC (Pseudomonas aeruginosa [25]): 16 µg/mL; MIC [26]: 16 µg/mL; MIC [27]: 16 µg/mL; MIC [28]: 16 µg/mL; MIC [29]: 8 µg/mL; MIC [30]: 16 µg/mL; MIC (Acinetobacter baumannii [31]): 16 µg/mL; MIC (Acinetobacter baumannii [32]): 16 µg/mL; MIC (Acinetobacter baumannii [33]): 16 µg/mL; MIC (Acinetobacter baumannii [34]): 16 µg/mL; MIC (Acinetobacter baumannii [35]): 16 µg/mL
NCCCCN1C(=O)N(CCCCN)C(=O)C(Cc2ccc(Br)c(Cl)c2)(Cc2ccc(Br)c(Cl)c2)C1=O.O=C(O)C(F)(F)F.O=C(O)C(F)(F)F	6 µg/mL	172 µg/mL	32 µg/mL	16 µg/mL	1 µg/mL	4 µg/mL	10 µg/mL	8 µg/mL	8 µg/mL	4 µg/mL	8 µg/mL	4 µg/mL	16 µg/mL	8 µg/mL	16 µg/mL	16 µg/mL	4 µg/mL	16 µg/mL	16 µg/mL	16 µg/mL	MIC (Escherichia coli [19]): 16 µg/mL; MIC (Escherichia coli [20]): 16 µg/mL; MIC (Pseudomonas aeruginosa [21]): 32 µg/mL; MIC (Pseudomonas aeruginosa [22]): 32 µg/mL; MIC (Pseudomonas aeruginosa [23]): 32 µg/mL; MIC (Pseudomonas aeruginosa [24]): 32 µg/mL; MIC (Pseudomonas aeruginosa [25]): 32 µg/mL; MIC [26]: 32 µg/mL; MIC [27]: 32 µg/mL; MIC [28]: 16 µg/mL; MIC [29]: 32 µg/mL; MIC [30]: 32 µg/mL; MIC (Acinetobacter baumannii [31]): 32 µg/mL; MIC (Acinetobacter baumannii [32]): 32 µg/mL; MIC (Acinetobacter baumannii [33]): 32 µg/mL; MIC (Acinetobacter baumannii [34]): 32 µg/mL; MIC (Acinetobacter baumannii [35]): 32 µg/mL
CC(C)(C)c1ccc(CC2(Cc3ccc(C(C)(C)C)cc3)C(=O)N(CCCCN)C(=O)N(CCCCN)C2=O)cc1.O=C(O)C(F)(F)F.O=C(O)C(F)(F)F	3 µg/mL	145 µg/mL	8 µg/mL	4 µg/mL	1 µg/mL	4 µg/mL	1 µg/mL	8 µg/mL	8 µg/mL	8 µg/mL	8 µg/mL	8 µg/mL	8 µg/mL	4 µg/mL	8 µg/mL	8 µg/mL	8 µg/mL	8 µg/mL	8 µg/mL	4 µg/mL	MIC (Escherichia coli [19]): 8 µg/mL; MIC (Escherichia coli [20]): 4 µg/mL; MIC (Pseudomonas aeruginosa [21]): > 32 µg/mL; MIC (Pseudomonas aeruginosa [22]): > 32 µg/mL; MIC (Pseudomonas aeruginosa [23]): > 32 µg/mL; MIC (Pseudomonas aeruginosa [24]): > 32 µg/mL; MIC (Pseudomonas aeruginosa [25]): > 32 µg/mL; MIC [26]: > 32 µg/mL; MIC [27]: 32 µg/mL; MIC [28]: 16 µg/mL; MIC [29]: 16 µg/mL; MIC [30]: 32 µg/mL; MIC (Acinetobacter baumannii [31]): 16 µg/mL; MIC (Acinetobacter baumannii [32]): 32 µg/mL; MIC (Acinetobacter baumannii [33]): 16 µg/mL; MIC (Acinetobacter baumannii [34]): 16 µg/mL; MIC (Acinetobacter baumannii [35]): 16 µg/mL
